Experimental data taken from article PMC7985170, “Marine Peptide-N6NH2 and Its Derivative-GUON6NH2 Have Potent Antimicrobial Activity Against Intracellular Edwardsiella tarda in vitro and in vivo” (Frontiers in Microbiology, 2021).
≈ marks a conversion by molar mass, not a printed value. Where a SMILES comes first, the peptide text is derived from it. Bridges are numbered along the chain shown (N, C = ends). The star is where a group is joined. Orn(α-tetramethylguanidino) = CN(C)C(=N[C@@H](CCCN)C(=O)*)N(C)C

What was measured:
E. coli CVCC1515 = assay type: cell-based, Escherichia coli
Method: (§1) The antimicrobial activity of peptides was determined by the microbroth dilution method ([Zhang et al., 2014]). The bacterial strains were incubated in Mueller-Hinton (MH) medium at 28°C or 37°C overnight. Bacteria (1 × 10^5 CFU/mL) were added into 96-well plates, followed by the addition of serial dilutions of peptides (from 0.0625 to 128 μg/mL). The plates were incubated at 37°C for 18–24 h. The minimal inhibitory concentration (MIC) value was determined as the lowest peptide concentration at which no bacterial growth was observed.

E. coli CVCC25922 = assay type: cell-based, Escherichia coli
Method: as §1

[1] = assay type: cell-based, Streptococcus enteritidis
Method: as §1

Edwardsiella tarda = assay type: cell-based
Method: as §1

Escherichia coli CVCC195 = assay type: cell-based
Method: as §1

[2] = test system: Salmonella pullorum CVCC1802; assay type: cell-based
Method: as §1

[3] = test system: Salmonella typhimurium CVCC533; assay type: cell-based; settings: murium CVCC533
Method: as §1

[4] = test system: Staphylococcus aureus ATCC43300; assay type: cell-based
Method: as §1

[5] = test system: Staphylococcus hyicus 437-2; assay type: cell-based
Method: as §1

S. aureus ATCC25923 = assay type: cell-based, Staphylococcus aureus
Method: as §1

S. aureus ATCC546 = assay type: cell-based, Staphylococcus aureus
Method: as §1

murine erythrocytes = assay type: cell-based, mouse
Method: The hemolysis of peptides was evaluated by determining the amount of hemoglobin that was released from fresh mouse erythrocytes ([Flamm et al., 2019]). The blood cells were washed three times with 10 mM PBS (pH 7.4) and centrifuged for 10 min (1,500 rpm). Erythrocyte solution (8%, v/v) was mixed with peptide solutions (1:1) and incubated for 1 h at 37°C. The mixture was then centrifuged for 5 min (1,500 rpm), and the absorbance of supernatants was measured at 540 nm. Values of 0 and 100% hemolysis were determined in PBS and 0.1% triton X-100, respectively. The hemolysis of peptides was calculated using the following formula: Hemolysis (%) = [(Abs treated sample – Abs negative control)/(Abs positive control – Abs negative control)] × 100.

E. tarda [6] = experiment: Post-antibiotic effect (PAE); assay type: cell-based, Edwardsiella tarda; settings: for PAE: 2 h exposure, E. tarda, 28°C, n = 3
Method: E. tarda cells were incubated with peptides (1×, 2×, or 4× MIC) for 2 h, diluted, and cultured at 28°C and 200 rpm. An aliquot of samples (50 μL) were taken for CFU counts at different time intervals until bacterial cultures became turbid. Bacteria treated with the N6NH2, GUON6NH2 or vancomycin were used as the positive control; bacteria without treatment were used as the blank control. The PAE was calculated using the following formula: PAE = T–C, where T is the time for the CFU counts to increase by 10-fold above the count observed immediately after drug removal, and C is the corresponding time for the untreated control ([Oh et al., 2019]).

[7] = test system: inner membrane of E. tarda; experiment: Inner membrane penetration, PI staining by flow cytometry; assay type: cell-based, Edwardsiella tarda; settings: 1× MIC, 5–30 min at 37°C, 1 × 10^8 CFU/mL
Method: Mid-log phase E. tarda cells (1 × 10^8 CFU/mL) were incubated with or without 1× MIC peptides solutions at 37°C for 5, 15, and 30 min, respectively. After washing twice with PBS, bacterial cells were then incubated with 50 μg/mL propidium iodide (PI) for 15 min and analyzed using a FACS Calibur Flow Cytometer (BD, United States) ([Stearns-Kurosawa et al., 2011]).

RAW 264.7 macrophages = assay type: cell-based, mouse
Method: To quantify peptide uptake, RAW 264.7 macrophages were grown in 12-well plates (2.5 × 10^5 cells/mL, 750 μL/well) for 24 h. Then, the cells were treated with FITC-N6NH2 and FITC-GUON6NH2 (1, 5, 10, 25, and 50× MIC) for 18 h and washed with PBS. To avoid the influence of membrane-bound FITC-labeled peptides, the cells were incubated with 0.04% trypan blue in PBS for 15 min and the fluorescence intensity was analyzed using a FACS Calibur Flow Cytometer (BD, United States) ([Duchardt et al., 2009]).

[8] = test system: intracellular E. tarda in RAW 264.7 macrophages; assay type: cell-based, Edwardsiella tarda; settings: for killing of intracellular bacteria: 5–50× MIC, RAW 264.7; for killing of intracellular bacteria / killing efficacy against intracellular E. tarda: 18 h; for killing efficacy against intracellular E. tarda: 1
Method: For intracellular activity, RAW 264.7 macrophages (2.5 × 10^5 cells/mL) were cultured for 24 h in DMEM with 10% FBS (without antibiotics) ([Edwards and Massey, 2011]). Meanwhile, mid-log phase E. tarda were collected by centrifugation, diluted to a concentration of 2.5 × 10^8 CFU/mL in DMEM with 10% FBS (without antibiotic), and incubated with RAW 264.7 macrophages for 0.5 h. Gentamicin (1,000 μg/mL) was then added into the cells and incubated for 30 min to remove extracellular bacteria. After washing twice with PBS, […], washed again, and lysed with Hanks buffered saline solution (0.1% bovine serum albumin and 0.1% Triton-X). The numbers of intracellular bacteria were counted at 0 and 18 h, respectively.

E. tarda [9] = experiment: Post-antibiotic effect (PAE); assay type: cell-based, Edwardsiella tarda; settings: 4× MIC

Row | SMILES | MIC (E. coli CVCC1515) [µg/mL] | MIC (E. coli CVCC25922) [µg/mL] | MIC [1] [µg/mL] | MIC (Edwardsiella tarda) [µg/mL] | MIC (Escherichia coli CVCC195) [µg/mL] | MIC [2] [µg/mL] | MIC [3] [µg/mL] | MIC [4] [µg/mL] | MIC [5] [µg/mL] | MIC (S. aureus ATCC25923) [µg/mL] | MIC (S. aureus ATCC546) [µg/mL] | MHC (murine erythrocytes) [µg/mL] | PAE (E. tarda [6]; 1× MIC) [h] | PAE (E. tarda [6]; 2× MIC) [h] | PAE (E. tarda [6]; 4× MIC) [h] | penetration rate (PI-stained cells) [7] | percentages of florescent cells (RAW 264.7 macrophages) | killing of intracellular bacteria [8] | killing efficacy against intracellular E. tarda [8] | other results
1 | CC(C)[C@@H]1NC(=O)CNC(=O)[C@H](CC(N)=O)NC(=O)[C@H](CCCNC(=N)N)NC(=O)[C@H](Cc2ccc(O)cc2)NC(=O)[C@H](C(C)C)NC(=O)[C@@H](NC(=O)[C@@H](NC(=O)[C@H](CC(N)=O)NC(=O)[C@H](Cc2c[nH]c3ccccc23)NC(=O)[C@H](C)NC(=O)[C@H](Cc2ccccc2)NC(=O)[C@H](CCCN)N=C(N(C)C)N(C)C)C(C)C)CSSC[C@@H](C(=O)N[C@@H](Cc2c[nH]cn2)C(=O)N[C@@H](CCCNC(=N)N)C(=O)N[C@@H](CCCNC(=N)N)C(=O)N[C@@H](C)C(=O)N[C@@H](CC(N)=O)C(N)=O)NC(=O)[C@H](C(C)C)NC(=O)[C@H](CCCNC(=N)N)NC1=O [GUON6NH2] ({Orn(α-tetramethylguanidino)}-FAWNVCVYRNGVRVCHRRAN-NH2; disulfide 6-15) | 2 (≈ 0.76 µM) | 4 (≈ 1.52 µM) | 2 (≈ 0.76 µM) | 8 (≈ 3.04 µM) | 4 (≈ 1.52 µM) | 4 (≈ 1.52 µM) | 8 (≈ 3.04 µM) | 16 (≈ 6.08 µM) | 32 (≈ 12.2 µM) | 32 (≈ 12.2 µM) | 16 (≈ 6.08 µM) | >128 | 1.54 | 1.51 | 3.97 | 0.78–2.84% | 16.1–86.5% | killed all intracellular bacteria | over 97.07% | cytotoxicity and hemolysis (murine erythrocytes; red cells of mouse, 1 h): < 1%; PAE, times longer than that of N6NH2 (E. tarda [6]; 4× MIC): 2.65 times; PAE, times longer than that of norfloxacin (E. tarda [9]): 1.27 times
2 | CC(C)[C@@H]1NC(=O)CNC(=O)[C@H](CC(N)=O)NC(=O)[C@H](CCCNC(=N)N)NC(=O)[C@H](Cc2ccc(O)cc2)NC(=O)[C@H](C(C)C)NC(=O)[C@@H](NC(=O)[C@@H](NC(=O)[C@H](CC(N)=O)NC(=O)[C@H](Cc2c[nH]c3ccccc23)NC(=O)[C@H](C)NC(=O)[C@H](Cc2ccccc2)NC(=O)CN)C(C)C)CSSC[C@@H](C(=O)N[C@@H](Cc2cnc[nH]2)C(=O)N[C@@H](CCCNC(=N)N)C(=O)N[C@@H](CCCNC(=N)N)C(=O)N[C@@H](C)C(=O)N[C@@H](CC(N)=O)C(N)=O)NC(=O)[C@H](C(C)C)NC(=O)[C@H](CCCNC(=N)N)NC1=O [N6NH2] | 2 (≈ 0.808 µM) | 4 (≈ 1.62 µM) | 2 (≈ 0.808 µM) | 8 (≈ 3.23 µM) | 4 (≈ 1.62 µM) | 4 (≈ 1.62 µM) | 4 (≈ 1.62 µM) | 16 (≈ 6.46 µM) | 32 (≈ 12.9 µM) | 32 (≈ 12.9 µM) | 16 (≈ 6.46 µM) | >128 | 1.75 | 1.67 | 1.5 | 0.99–1.71% | 27.6–79.8% | killed all intracellular bacteria | 96.82% | intracellular inhibition rate against E. tarda ([8]; 24 h, 50): 96.82–100%
